Laboratory results as given in patent US8084586B2, “Doxorubicin immunoassay” (Saladax Biomedical, Inc., priority 2005, dated 2011).

Experiments:
[1] = tested on: monoclonal antibody to doxorubicin [4]-BTG (Immunogen Example 3a, Example 7); test: Indirect competitive microtiter plate ELISA, cross-reactivity, monoclonal antibody from doxorubicin [4]-BTG immunogen (Example 3a); type: binding, mouse (BALB/c); conditions: relative to doxorubicin
Description: (§1) Two groups of ten Female BALB/c mice were immunized i.p. one with 100 μg/mouse of doxorubicin [4]-BTG immunogen prepared in Example 3a and the other with 100 μg/mouse of doxorubicin [4]-KLH immunogen prepared in Example 3b emulsified in Complete Freund's adjuvant. The mice were boosted once four weeks after the initial injection with 100 μg/mouse of the same immunogens emulsified in Incomplete Freund's Adjuvant. Ten days after the boost test bleeds from each mouse were obtained by orbital bleed. For monoclonal antibodies depending on the immunogen, age and rest period of the mouse starting four days before the fusion, the mice were injected i.p. with either 400 μg (3 days before fusion), 200 μg (2 days before fusion), and […] (1 day before fusion) of doxorubicin [4]-BTG immunogen prepared in Example 3a in PBS or 100 ug on each day of doxorubicin [4]-KLH immunogen prepared in Example 3b in PBS on three successive days. According to the protocol of Coligan et al. spleen cells were isolated from the selected mice and fused with 2×10^7 cells of the myeloma fusion partner cell line (SP2/0) using 50% polyethylene glycol 1500 [Coligan, J. E. et al., eds., Current Protocols in Immunology, 2.5.1-2.5.8, (1992), Wiley & Sons, NY.] To grow the fused cells into antibody producing colonies according to the method of Coligan et al. the fused cells were plated on 10 96-well plates in a conventional HAT (hypoxanthine, aminopterin and thymidine) selective growth medium such as DMEM/F12 (Dulbecco's Modified Eagle's Medium 1:1 with L-glutamine and HEPES) supplemented with 20% fetal bovine serum alternative, and containing 2% L-glutamine (100 mM) and 2% 50× HAT. Two weeks later, the hybridoma supernatant was assayed for the presence of anti-doxorubicin antibodies by ELISA as described in Example 10b. Positive wells were expanded and again screened by the same method. The positive clones were confirmed for doxorubicin binding by a competitive ELISA as described in Example 11 or subcloned directly. Clones positive by ELISA were subcloned once or twice by limiting dilution according to the method disclosed in Coligan, J. E. et al., eds., Current Protocols in Immunology, 2.5.8-2.5.17, (1992), Wiley & Sons, NY.
For the purpose of screening antibodies and measuring doxorubicin concentration by the Enzyme-Linked Immunosorbent Assay (ELISA) method polystyrene microtiter plates (Nunc MaxiSorp F8 Immunomodules) optimized for protein binding and containing 96 wells per plate were used. Each well was coated with doxorubicin [5]-BSA 3:1 conjugate (prepared as in Example 6b) by adding 300 μL of doxorubicin [1]-BSA conjugate at 10 μg/mL in 0.01 M MES, pH=6, and incubating for three hours at room temperature. […]

[2] = tested on: antibodies to doxorubicin [5]-BTG (Immunogen Example 4a, Example 8); test: Indirect competitive microtiter plate ELISA, cross-reactivity, antiserum from doxorubicin [5]-BTG immunogen (Example 4a); type: binding, mouse (BALB/c); conditions: relative to doxorubicin
Description: Mice were boosted once four weeks after the initial injection with 100 μg/mouse of the same immunogens emulsified in Incomplete Freund's Adjuvant. Ten and 28 days after the boost test bleeds from each mouse were obtained by orbital bleed. The anti-serum from the day 28 test bleeds contained doxorubicin antibodies evaluated in Examples 10a and 11. […] For the purpose of screening antibodies and measuring doxorubicin concentration by the Enzyme-Linked Immunosorbent Assay (ELISA) method polystyrene microtiter plates (Nunc MaxiSorp F8 Immunomodules) optimized for protein binding and containing 96 wells per plate were used. […] The wells were washed with 0.005 M MES, pH 6 and then were blocked with 375 μL of 5% sucrose, 0.2% sodium caseinate solution for 30 minutes at room temperature. After removal of the post-coat solution the plates were dried at 37° C. overnight. […] The wells were washed with 0.005 M MES, pH 6 and then were blocked with 375 μL of 5% sucrose, 0.2% sodium caseinate solution for 30 minutes at room temperature. After removal of the post-coat solution the plates were dried at 37° C. overnight. For the purpose of screening antibodies and measuring doxorubicin concentration by the Enzyme-Linked Immunosorbent Assay (ELISA) method polystyrene microtiter plates (Nunc MaxiSorp F8 Immunomodules) optimized for protein binding and containing 96 wells per plate were used. […] The wells were washed with 0.005 M MES, pH 6 and then were blocked with 375 μL of 5% sucrose, 0.2% sodium caseinate solution for 30 minutes at room temperature. After removal of the post-coat solution the plates were dried at 37° C. overnight. Antibodies were screened by Enzyme-Linked Immunosorbent Assay (ELISA) method. […] During this incubation antibody binds to the doxorubicin [5]-conjugate in the well. […] After an incubation of 10 minutes at room temperature with shaking, during which the goat anti-mouse antibody—HRP enzyme conjugate binds to doxorubicin antibodies in the wells, the plates were again washed three times to remove unbound goat anti-mouse antibody—HRP enzyme conjugate. To develop a measurable color in the wells washing was followed by the addition of 100 μL of TMB (TMB Liquid Substrate), a substrate for HRP, to develop color during a 10 minute incubation with shaking at room temperature. Following the incubation for color development, 50 μL of stop solution (1.5% sodium fluoride in di H2O) was added to each well to stop the color development and after 10 seconds of shaking the absorbance was determined at 650 nm with a 96-well plate reader. The amount of antibody in a well was proportional to the absorbance measured and was expressed as the dilution (titer) resulting in an absorbance of 1.5. Titers were determined by graphing log antibody dilution of the antibody measured (x-axis) vs. absorbance 650 nm (y-axis) and extrapolating the titer at an absorbance of 1.5. The titer determined the concentration (dilution) of antibody used in the indirect competitive Microtiter plate assay described in Example 11. Doxorubicin concentrations were measured by an indirect competitive Enzyme-Linked Immunosorbent Assay (ELISA) method This method for measuring doxorubicin concentrations was performed with the microtiter plates that were sensitized with doxorubicin [1]-BSA described in Examples 9b, c, d. […] During the 10 minute incubation (R.T., with shaking) there is a competition of antibody binding for the doxorubicin conjugate in the well and the analyte in solution. […]

[3] = tested on: monoclonal antibody to doxorubicin [4]-KLH (Immunogen Example 3b, Example 7); test: Indirect competitive microtiter plate ELISA, cross-reactivity, monoclonal antibody from doxorubicin [4]-KLH immunogen (Example 3b); type: binding, mouse (BALB/c); conditions: relative to doxorubicin
Description: as §1
(§2) For the purpose of screening antibodies and measuring doxorubicin concentration by the Enzyme-Linked Immunosorbent Assay (ELISA) method polystyrene microtiter plates (Nunc MaxiSorp F8 Immunomodules) optimized for protein binding and containing 96 wells per plate were used. Each well was coated with doxorubicin [5]-BSA 3:1 conjugate (prepared as in Example 6b) by adding 300 μL of doxorubicin [1]-BSA conjugate at 10 μg/mL in 0.01 M MES, pH=6, and incubating for three hours at room temperature. The wells were washed with 0.005 M MES, pH 6 and then were blocked with 375 μL of 5% sucrose, 0.2% sodium caseinate solution for 30 minutes at room temperature. After removal of the post-coat solution the plates were dried at 37° C. overnight.
as §2, with “[1]-BSA 1:1” for “[5]-BSA 3:1”, “6c)” for “6b)”, “[5]-BSA” for “[1]-BSA”
For the purpose of screening antibodies and measuring doxorubicin concentration by the Enzyme-Linked Immunosorbent Assay (ELISA) method polystyrene microtiter plates (Nunc MaxiSorp F8 Immunomodules) optimized for protein binding and containing 96 wells per plate were used. […]

[4] = tested on: antibodies to doxorubicin [5]-KLH (Immunogen Example 4b, Example 8); test: Indirect competitive microtiter plate ELISA, cross-reactivity, antiserum from doxorubicin [5]-KLH immunogen (Example 4b); type: binding, mouse (BALB/c); conditions: relative to doxorubicin
Description: Mice were boosted once four weeks after the initial injection with 100 μg/mouse of the same immunogens emulsified in Incomplete Freund's Adjuvant. Ten and 28 days after the boost test bleeds from each mouse were obtained by orbital bleed. The anti-serum from the day 28 test bleeds contained doxorubicin antibodies evaluated in Examples 10a and 11. […] For the purpose of screening antibodies and measuring doxorubicin concentration by the Enzyme-Linked Immunosorbent Assay (ELISA) method polystyrene microtiter plates (Nunc MaxiSorp F8 Immunomodules) optimized for protein binding and containing 96 wells per plate were used. […] The wells were washed with 0.005 M MES, pH 6 and then were blocked with 375 μL of 5% sucrose, 0.2% sodium caseinate solution for 30 minutes at room temperature. After removal of the post-coat solution the plates were dried at 37° C. overnight. For the purpose of screening antibodies and measuring doxorubicin concentration by the Enzyme-Linked Immunosorbent Assay (ELISA) method polystyrene microtiter plates (Nunc MaxiSorp F8 Immunomodules) optimized for protein binding and containing 96 wells per plate were used. […] The wells were washed with 0.005 M MES, pH 6 and then were blocked with 375 μL of 5% sucrose, 0.2% sodium caseinate solution for 30 minutes at room temperature. After removal of the post-coat solution the plates were dried at 37° C. overnight. For the purpose of screening antibodies and measuring doxorubicin concentration by the Enzyme-Linked Immunosorbent Assay (ELISA) method polystyrene microtiter plates (Nunc MaxiSorp F8 Immunomodules) optimized for protein binding and containing 96 wells per plate were used. […] Following the incubation for color development, 50 μL of stop solution (1.5% sodium fluoride in di H2O) was added to each well to stop the color development and after 10 seconds of shaking the absorbance was determined at 650 nm with a 96-well plate reader. The amount of antibody in a well was proportional to the absorbance measured and was expressed as the dilution (titer) resulting in an absorbance of 1.5. Titers were determined by graphing log antibody dilution of the antibody measured (x-axis) vs. absorbance 650 nm (y-axis) and extrapolating the titer at an absorbance of 1.5. The titer determined the concentration (dilution) of antibody used in the indirect competitive Microtiter plate assay described in Example 11. Doxorubicin concentrations were measured by an indirect competitive Enzyme-Linked Immunosorbent Assay (ELISA) method This method for measuring doxorubicin concentrations was performed with the microtiter plates that were sensitized with doxorubicin [1]-BSA described in Examples 9b, c, d. […]

[5] = tested on: antibody as produced in Examples 7 and 8 with immunogen of Examples 3a, 3b, 4a & b; test: Competitive immunoassay cross-reactivity, antibodies of Examples 7 and 8 taken together; type: binding, mouse; conditions: antibodies of Examples 7 and 8, immunogens of Examples 3a
Description: The present invention relates to novel antibodies and monoclonal antibodies to doxorubicin. The antisera of the invention can be conveniently produced by immunizing host animals with the immunogens of this invention. Suitable host animals include rodents, such as, for example, mice, rats, rabbits, guinea pigs and the like, or higher mammals such as goats, sheep, horses and the like. […] Doxorubicin concentrations were measured by an indirect competitive Enzyme-Linked Immunosorbent Assay (ELISA) method This method for measuring doxorubicin concentrations was performed with the microtiter plates that were sensitized with doxorubicin [1]-BSA described in Examples 9b, c, d. […] The assay was performed by incubating 50 μL of the analytes to be measured with 50 μL of antibody (produced in Examples 7 and 8 with immunogens of Examples 3a, 3b, 4a and 4b) diluted to a titer determined in Example 10a. […] Following the incubation for color development, 50 μL of stop solution (1.5% sodium fluoride in di H2O) was added to each well to stop the color development and after 10 seconds of shaking the absorbance was determined at 650 nm with a 96-well plate reader. The amount of antibody in a well was proportional to the absorbance measured and inversely proportional to the amount of doxorubicin in the sample. […]

[6] = plate sensitized as in Example 9b (doxorubicin [5]-BSA 3:1)
[7] = plate sensitized as in Example 9c (doxorubicin [5]-BSA 1:1)
[8] = plate sensitized as in Example 9d (doxorubicin [5]-BSA 1:1 thiol capped)

Compound | % cross-reactivity [1, 6] [%] | % cross-reactivity [1, 7] [%] | % cross-reactivity [2, 6] [%] | % cross-reactivity [2, 7] [%] | % cross-reactivity [2, 8] [%] | % cross-reactivity [3, 6] [%] | % cross-reactivity [3, 7] [%] | % cross-reactivity [3, 8] [%] | % cross-reactivity [4, 6] [%] | percent cross-reactivity relative to doxorubicin [5] | % cross-reactivity [4, 7] [%] | % cross-reactivity [4, 8] [%]
COc1cccc2c1C(=O)c1c(O)c3c(c(O)c1C2=O)C[C@@](O)(C(=O)CO)C[C@@H]3O [doxorubicin-aglycone, doxorubicin aglycone] | 10.6 | 12.9 | 5.7 | 10.0 | 8.8 | 1.5 | 3.9 | 3.0 | 8.6 | less than or equal to 10% | – | –
COc1cccc2c1C(=O)c1c(O)c3c(c(O)c1C2=O)C[C@@](O)(C(=O)CO)C[C@@H]3O[C@H]1C[C@H](N)[C@H](O)[C@H](C)O1.Cl [doxorubicin] | 100 | 100 | 100 | 100 | 100 | 100 | 100 | 100 | 100 | – | 100 | 100
